Reference: patent US8993626B2, “Methods of treatment using sterculic acid” (The United States of America, as represented by the …, priority 2010, dated 2015)
Like-named read-outs stand apart in the source and are kept apart here.

What was measured:
ARPE-19 cells [1] = assay: Immunoblots of CHOP and GRP78; assay type: cell-based; details: 1 μM + 8 μM 7KCh
Procedure: (§1) FIGS. 16A-16E depict the secreted protein levels of (A) VEGF, (B) IL-6, and (C) IL-8 were measure by ELISA 48 hr after treatment with 6 μM 7KCh, 1 μM sterculic acid, 1 μM stearic acid, or the combinations of 7KCh with either sterculic acid or stearic acid. Error bars indicate the standard deviations. *p<0.05 comparing to 7KCh, n=3. Two-tailed Student's t-test. The expressions of GRP78 and CHOP were shown by immunoblots (D) 24 hr or (E) 48 hr after treatment with 8 μM 7KCh, 1 μM sterculic acid, 1 μM stearic acid, or the combinations of 7KCh with either sterculic acid or stearic acid.
(§2) ARPE-19 cells were seeded in 24-well plates with 1×10^5 cells per well and allowed to recover for 16-24 hr. Once confluency reached approximately 90%, the effect of the fatty acids against 7KCh-mediated cell death was examined 24 hr after incubation in serum-free medium with 12 μM 7KCh. Fatty acids were tested at 0.1, 0.5, 1, 5 and 10 μM concentrations. The effects of the fatty acids against 7KCh-mediated inflammation and ER stress were examined by incubating cells in 1 μM fatty acids with either 8 μM 7KCh (24 hr for quantitative real-time PCR (qRT-PCR), 24 and 48 hr for immunoblot), or 6 μM 7KCh for 48 hr (for ELISA). Three individual experiments were performed for each treatment with quadruplicate measurements performed for each experiment in 24-well plates.
Lysis of ARPE-19 cells was performed using MPER buffer solution (Thermo Fisher Scientific) containing Complete Protease Inhibitor Cocktail (Roche Diagnostics). A total of 10 μg protein samples of the cell lysate were separated by SDS-PAGE on 10% Bis-Tris gels (Invitrogen). The gels were blotted on to nitrocellulose membranes (Invitrogen). The proteins were probed with primary antibodies for CHOP (1:1000 dilution), GRP78 (1:1000), or GAPDH (1:2000) at 4° C. overnight. The membranes were then further incubated with anti-rabbit IgG, HRP-linked antibodies (1:2000 dilution) at room temperature for 1 hr. […]

D407 cells = assay: 7-ketocholesterol-mediated cytotoxicity, 24-well CCK-8 viability; details: 11 μM 7KCh, 24 hr, CCK-8
HUVEC [2] = assay: Cord formation assay on Matrigel; assay type: cell-based; details: data not shown
HUVEC [3] = assay: HUVEC growth inhibition assay (crystal violet); assay type: cell-based; details: for IC50: Homo sapiens
Procedure: HUVEC (1.5×10^3) are plated in a 96-well plate in […] of EBM-2 (Clonetic #CC3162). After 24 h (day 0), the test compound (100 μL) is added to each well at 2× the desired concentration (5-7 concentration levels) in EBM-2 medium. On day 0, one plate is stained with 0.5% crystal violet in 20% methanol for 10 minutes, rinsed with water, and air-dried. The remaining plates are incubated for 72 h at 37° C. After 72 h, plates are stained with 0.5% crystal violet in 20% methanol, rinsed with water, and air-dried. The stain is eluted with 1:1 solution of ethanol:0.1M sodium citrate (including day 0 plate), and absorbance is measured at 540 nm with an ELISA reader (Dynatech Laboratories). Day 0 absorbance is subtracted from the 72 h plates and data is plotted as percentage of control proliferation (vehicle treated cells). IC50 (drug concentration causing 50% inhibition) is calculated from the plotted data.

Melanoma, UACC-62 = assay: NCI in vitro anti-cancer cell line screen (SRB); details: Homo sapiens, UACC-62, 48 h
Procedure: The human tumor cell lines used in the cancer screen panel were grown in RPMI 1640 medium containing 5% FBS and 2 mM L-glutamine. The cells were inoculated into 96-well microtiter plates in 100 μl at plating density ranging from 5000 to 40,000 cell/well. […] Following drug addition, the plates were incubated for an additional 48 h. The assay was terminated by the addition of cold 10% TCA. The supernatant was discarded, and the plates were washed five times with water and air dried. Sulforhodamine B (SRB) solution (100 μl) at 0.4% (w/v) in 1% acetic acid was added to each well, and plates were incubated for 10 min at room temperature. After staining, unbound dye was removed by washing five times with 1% acetic acid and the plates were air dried. Bound stain was subsequently solubilized with 10 mM trizma base, and the absorbance was read on an automated plate reader at a wavelength of 515 nm.
A sulforhodamine B (SRB) end point was used to calculate the median growth inhibition (GI50). GI50 refers to the concentration at which the drug inhibits tumor cell growth by 50%.

ARPE-19 cells [4] = assay: ELISA of secreted VEGF, IL-6, IL-8 in conditioned medium; assay type: cell-based; details: 6 μM 7KCh alone or with 1 μM fatty acid, 48 hr
Procedure: as §1, §2
The levels of secreted VEGF, IL-6, IL-8, and TNF-α in conditioned medium of ARPE-19 cell cultures were measured 48 hr after treatments of 6 μM 7KCh and 1 μM fatty acids using the Quantkine ELISA kits from R&D systems (Minneapolis, Minn.). The protein levels were measured in triplicates. The ELISA results were quantified using an Envision multilable plate reader (PerkinElmer, Covina, Calif.) and presented in percentage relative to the vehicle-only control.

ARPE19 cells = assay: CellTiter-Glo luminescent cell viability assay, 15 μM 7KCh-induced cytotoxicity; assay type: cell-based, human; details: 1 μM + 15 μM 7KCh, 24 hr
Procedure: Error bar: standard deviation, n=4.
CellTiter-Glo® Luminescent Cell Viability Assay is a homogeneous method of determining the number of viable cells in culture based on quantitation of the ATP (luminescent signal) present, an indicator of metabolically active cells.
The contents in a plate were mixed for 2 min on an orbital shaker to induce cell lysis.
5) The plate was allowed to incubate at room temperature for 10 min to stabilize luminescent signal.

## CCCCCCCCC1=C(CCCCCCCC(=O)O)C1 [sterculic acid, 8-(2-octacyclopropen-1-yl)octanoic acid]
ARPE-19 cells [1]; 24 hr
  effect on 7KCh-induced CHOP and GRP78 protein expression: completely inhibited
ARPE-19 cells [1]; after 48 hr
  inhibitory effect on CHOP and GRP78 protein expression: seems to decrease
D407 cells
  co-treatment concentration that completely offsets the 7KCh cytotoxic effect (viability at level of control): 5 µM
HUVEC [2]
  viability of HUVEC at concentrations required to inhibit cord formation: did not affect their viability
HUVEC [3]; HUVEC
  apoptosis induction: no apoptosis
HUVEC [3]; HUVEC, 72 h, read-out: IC50 value of the anti-proliferative effect
  IC50: ~11.7 µM
HUVEC [3]; HUVEC proliferation, read-out: IC50 (drug concentration causing 50% inhibition)
  IC50: 18.6 µM
Melanoma, UACC-62
  GI50: 1 µM
ARPE-19 cells [4]
  secreted IL-6 protein expression: 1.4 fold
  secreted IL-8 protein expression: 1.1 fold
  secreted VEGF protein expression: 1.1 fold
ARPE19 cells
  cell viability relative to the level of untreated control (ATP level): 80%
